Data reported in paper PMC3251254, “Mini-PEG spacering of VAP-1-targeting ^68Ga-DOTAVAP-P1 peptide improves PET imaging of inflammation” (EJNMMI Research, 2011).
Like-named read-outs stand apart in the source and are kept apart here. Residues, ends and D or L forms follow the SMILES beside them. *: point of attachment. DOTA = O=C(O)CN1CCN(CC(=O)O)CCN(CC(=O)*)CCN(CC(=O)O)CC1; AEEA = NCCOCCOCC(=O)O

Legend:
[1] = assay type: in vitro ADME; details: plasma
Method: The in vitro stability of the ^68Ga-labelled peptides was evaluated in human and rat plasma. Several samples were taken during the 4-h incubation period at 37°C. Proteins from plasma samples were precipitated with 10% sulphosalicylic acid (1:1 v/v), centrifuged at 3,900 × g for 3 min at 4°C, and filtered through 0.45-μm Minispike filter (Waters Corporation). The filtrate was analysed by radio-HPLC.

[2] = in vivo, iv; for AUC / CL / blood-plasma ratio / metabolic half-life / plasma free fraction (fp): rat
Method: Blood samples (0.2 ml of each) were drawn at 5, 10, 15, 30, 45, 60 and 120 min after injection of ^68Ga-DOTA-peptides into heparinised tubes (Microvette 100; Sarstedt, Nümbrecht, Germany). Radioactivity of whole blood was measured with the gamma counter (Wizard, EG&G Wallac). Plasma was separated by centrifugation (2,200 × g for 5 min at 4°C), and plasma radioactivity was measured. The ratio of radioactivity in blood versus plasma was calculated. To determine plasma protein binding, proteins were precipitated with 10% sulphosalicylic acid, and the radioactivity in protein precipitate and supernatant was measured. The plasma supernatant was further analysed by radio-HPLC in order to evaluate the in vivo stability of the ^68Ga-labelled peptides.
In vivo stability data were used in order to generate metabolite-corrected plasma TACs for ^68Ga-DOTAVAP-P1 and ^68Ga-DOTAVAP-PEG-P1, which were further used for the calculation of pharmacokinetic parameters. The area under curve (AUC) of the plasma TAC from 0 to infinity was calculated using a non-compartmental analysis employing the trapezoidal rule. The clearance (CL) of the ^68Ga-labelled peptides after a single intravenous bolus dose was calculated by dividing the injected dose by the AUC. The plot of the natural logarithm of parent tracer concentration against time after bolus injection became linear in the end phase, as the tracer was eliminated according to the laws of first-order reaction kinetics. The elimination rate constant (kel) was calculated as the negative slope of the linear part of the plot. The plasma elimination half-life (t1/2) was calculated as t1/2 = ln(2)/kel. The metabolic half-lives of the ^68Ga-DOTA-peptides were calculated according to the results of radio-HPLC, i.e. the time point when 50% of the total radioactivity is still bound to the intact peptide.

remaining at 4 h ([1]; human)	remaining at 4 h ([1]; rat)	proportion of unchanged peptide in rat plasma at 60 min after injection [2]	proportion of unchanged peptide in rat plasma at 120 min after injection [2]	AUC [2]	CL [2]	blood-plasma ratio [2]	metabolic half-life [2]	plasma free fraction (fp) [2]	SMILES
88 ± 3%	82 ± 11%	19 ± 4%	4 ± 1%	950 ± 170 min*kBq/ml	0.017 ± 0.001 mL/min	1.3 ± 0.1	0.4 h	0.84 ± 0.04	NCCCC[C@H](NC(=O)CNC(=O)CNC(=O)CNC(=O)CNC(=O)CN1CCN(CC(=O)O)CCN(CC(=O)O)CCN(CC(=O)O)CC1)C(=O)NCC(=O)NCC(=O)NCC(=O)NCC(=O)O [^68Ga-DOTAVAP-P1, metal not drawn] ({DOTA}-GGGGKGGGG-OH)
89 ± 8%	90 ± 6%	76 ± 18%	49 ± 6%	2,400 ± 68 min*kBq/ml	0.008 ± 0.002 mL/min	1.3 ± 0.1	2.08 h	0.86 ± 0.02	NCCCC[C@H](NC(=O)CNC(=O)CNC(=O)CNC(=O)CNC(=O)COCCOCCNC(=O)CN1CCN(CC(=O)O)CCN(CC(=O)O)CCN(CC(=O)O)CC1)C(=O)NCC(=O)NCC(=O)NCC(=O)NCC(=O)O [^68Ga-DOTAVAP-PEG-P1, metal not drawn] ({DOTA-AEEA}-GGGGKGGGG-OH)
